Test results published in PubChem BioAssay (NCI).
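Step 1: Grow cells in 96-well plates. Step 2: Expose to compound for 48 hours at 5 concentrations. Step 3: Interpolate endpoints linearly; if unreached, use highest concentration. TGI marks complete inhibition of growth.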

Legend:
Assay in all cases: NCI-60 cell line screen, 48 h
[1] = tested on: RPMI-8226 leukemia
[2] = tested on: MCF7 breast
[3] = tested on: TK-10 renal
[4] = tested on: CCRF-CEM leukemia
[5] = tested on: LOX IMVI melanoma
[6] = tested on: HCT-116 colon
[7] = tested on: HCT-15 colon
[8] = tested on: DU-145 prostate
[9] = tested on: ACHN renal
[10] = tested on: COLO 205 colon
[11] = tested on: EKVX NSCLC
[12] = tested on: MDA-N
[13] = tested on: MDA-MB-435
[14] = tested on: SK-MEL-2 melanoma
[15] = tested on: SF-295 CNS
[16] = tested on: SK-OV-3 ovarian
[17] = tested on: CAKI-1 renal
[18] = tested on: MDA-MB-231 breast
[19] = tested on: HL-60(TB) leukemia
[20] = tested on: SK-MEL-5 melanoma
[21] = tested on: IGROV1 ovarian
[22] = tested on: OVCAR-5 ovarian
[23] = tested on: UACC-257 melanoma
[24] = tested on: A549 NSCLC
[25] = tested on: SF-539 CNS
[26] = tested on: UACC-62 melanoma
[27] = tested on: NCI/ADR-RES ovarian
[28] = tested on: T-47D breast
[29] = tested on: U251 CNS
[30] = tested on: OVCAR-3 ovarian
[31] = tested on: SF-268 CNS
[32] = tested on: HS 578T breast
[33] = tested on: OVCAR-4 ovarian
[34] = tested on: SK-MEL-28 melanoma
[35] = tested on: SR leukemia
[36] = tested on: K-562 leukemia
[37] = tested on: RXF 393 renal
[38] = tested on: NCI-H23 lung
[39] = tested on: HCC-2998 colon
[40] = tested on: NCI-H460 lung
[41] = tested on: SW-620 colon
[42] = tested on: BT-549 breast
[43] = tested on: PC-3 prostate
[44] = tested on: NCI-H226 lung
[45] = tested on: MOLT-4 leukemia
[46] = tested on: SN12C renal
[47] = tested on: M14 melanoma
[48] = tested on: SNB-19 CNS
[49] = tested on: OVCAR-8 ovarian
[50] = tested on: HOP-62 NSCLC
[51] = tested on: 786-0 renal
[52] = tested on: A498 renal
[53] = tested on: HOP-92 NSCLC
[54] = tested on: MALME-3M melanoma
[55] = tested on: NCI-H522 lung
[56] = tested on: KM12 colon

Compound `O=C1c2ccc3cc(CCl)cc(O)c3c2C(=O)c2cccc(O)c21` has a TGI [1] of over 10 µM, a TGI [2] of 2.72 µM and a TGI [3] of over 10 µM. For the same compound, the TGI [4] was 5.16 µM, the TGI [5] was over 10 µM and the TGI [6] was 4.18 µM. The TGI [7] was over 10 µM, the TGI [8] was over 10 µM and the TGI [9] was 7.4 µM. It also gave a TGI [10] of 4.11 µM, a TGI [11] of over 10 µM and a TGI [12] of 0.314 µM. For the same compound, the TGI [13] was 0.324 µM, the TGI [14] was over 10 µM and the TGI [15] was over 10 µM. For the same compound, the TGI [16] was over 10 µM, the TGI [17] was over 10 µM and the TGI [18] was 3.16 µM. For the same compound, the TGI [19] was 1.61 µM, the TGI [20] was 1.98 µM and the TGI [21] was over 10 µM. For the same compound, the TGI [22] was over 10 µM, the TGI [23] was 3.04 µM and the TGI [24] was over 10 µM. For the same compound, the TGI [25] was 6.42 µM, the TGI [26] was 3.85 µM and the TGI [27] was 5.67 µM. The TGI [28] was over 10 µM, the TGI [29] was over 10 µM and the TGI [30] was 0.407 µM. It also gave a TGI [31] of 9.18 µM, a TGI [32] of over 10 µM and a TGI [33] of over 10 µM. For the same compound, the TGI [34] was 8.27 µM, the TGI [35] was over 10 µM and the TGI [36] was over 10 µM. For the same compound, the TGI [37] was 9.83 µM, the TGI [38] was over 10 µM and the TGI [39] was over 10 µM. The TGI [40] was over 10 µM, the TGI [41] was 1 µM and the TGI [42] was over 10 µM. The TGI [43] was over 10 µM, the TGI [44] was over 10 µM and the TGI [45] was 6.75 µM. For the same compound, the TGI [46] was 7.26 µM, the TGI [47] was 2.45 µM and the TGI [48] was over 10 µM. It also gave a TGI [49] of 5.03 µM, a TGI [50] of over 10 µM and a TGI [51] of over 10 µM. The TGI [52] was over 10 µM, the TGI [53] was over 10 µM and the TGI [54] was 0.0669 µM. For the same compound, the TGI [55] was over 10 µM and the TGI [56] was over 10 µM.
